The text below walks through data of patent US7807676B2, “Diketo-Piperazine and Piperidine derivatives as antiviral agents” (priority 2006, dated 2010).

By EC50 is commonly meant the concentration that produces a half-maximal response.

The experiment has as its system HIV-1 single-round infectious reporter virus. Kind of experiment: Single-round infectious HIV-1 luciferase reporter virus infection of HeLa CD4 cells (antiviral EC50). It is filed as cell-based. To be noted: Human immunodeficiency virus 1, HeLa, read-out: EC50 Group from Table 3. In outline:
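Compound (≤10 μM final, 10 concentrations) was added to HeLa CD4 cells together with luciferase-reporter HIV-1 pseudovirus (nef replaced by luciferase, envelope supplied in trans) at MOI ~0.01. Cells were lysed 72 h post-infection at 37 °C for luminescence; percent inhibition versus untreated infection, fitted four-parameter logistic for EC50.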
Background: In a reporter assay the amount or activity of a reporter protein is the signal.

Counter-ions that a name gives are not always drawn. A value given as a limit tells only on which side of the number the result lay.

For `COc1cnc(-n2cnc(C)n2)c2[nH]cc(C(=O)C(=O)N3CCN(c4ncccc4C(=O)N4CCOCC4)C[C@H]3C)c12` [D-13], the EC50 is above 500 nM.

Turning to `COc1cnc(-c2cc(C(=O)NCCN3CCCC3)[nH]n2)c2[nH]cc(C(=O)C(=O)N3CCN(c4nnnn4-c4ccccc4)CC3)c12` [B-11, 3-(4-methoxy-3-(2-oxo-2-(4-(1-phenyl-1H-tetrazol-5-yl)piperazin-1-yl)acetyl)-1H-pyrrolo[2,3-c]pyridin-7-yl)-N-(2-(pyrrolidin-1-yl)ethyl)-1H-pyrazole-5-carboxamide.TFA], the EC50 is below 500 nM.

With `COc1nc(-c2ncc(OC)c3c(C(=O)C(=O)N4CCN(c5nnnn5-c5ccccn5)CC4)c[nH]c23)cs1` [B-69], the EC50 is below 500 nM.

On to `O=C(C(=O)N1CCN(c2ncnn2-c2ccccc2)CC1)c1c[nH]c2c(-n3ccnn3)ncc(F)c12` [G-27a], for which the EC50 was below 500 nM.

For the compound `O=C(C(=O)N1CCC(c2nc3ccccc3n2-c2ccccc2)CC1)c1c[nH]c2c(-n3ccnn3)ncc(F)c12` [A-16], the EC50 was below 500 nM.

Regarding `COc1cnc(-c2cnc(N3CCOCC3)cn2)c2[nH]cc(C(=O)C(=O)N3CCN(c4nnnn4-c4ccccc4)CC3)c12` [G-2b], the EC50 is below 500 nM.

`O=C(C(=O)N1CCN(c2cccc(-c3ccccc3)c2)CC1)c1c[nH]c2c(-n3ccnn3)ncc(F)c12` [A-3]: the EC50 was below 500 nM.

As to `COc1cnc(-c2cc(CN(C)CCN(C)C)[nH]n2)c2[nH]cc(C(=O)C(=O)N3CCN(c4nnnn4-c4ccccc4)CC3)c12` [B-26, 1-(7-(5-(((2-(dimethylamino)ethyl)(methyl)amino)methyl)-1H-pyrazol-3-yl)-4-methoxy-1H-pyrrolo[2,3-c]pyridin-3-yl)-2-(4-(1-phenyl-1H-tetrazol-5-yl)piperazin-1-yl)ethane-1,2-dione TFA], the EC50 is below 500 nM.

Consider `O=C(C(=O)N1CCN(c2ccccc2C2CCCCC2)CC1)c1c[nH]c2c(-n3ccnn3)ncc(F)c12` [A-42], for which the EC50 was above 500 nM.

Take `O=C(C(=O)N1CCN(c2nncn2-c2ccccc2)CC1)c1c[nH]c2c(-n3ccnn3)ncc(F)c12` [A-20]: the EC50 is below 500 nM.

For the compound `O=C(C(=O)N1CCC(c2nccn2-c2ccccc2)CC1)c1c[nH]c2c(-n3ccnn3)ncc(F)c12` [G-18a], the EC50 is below 500 nM.

Regarding `COc1cnc(-n2cnc(C)n2)c2[nH]cc(C(=O)C(=O)N3CCN(c4ncnn4-c4ccccc4)CC3)c12` [G-27b], the EC50 is below 500 nM.

Consider `O=C(C(=O)N1CCN(c2nnnn2-c2ccccc2)CC1)c1c[nH]c2ncccc12` [A-10], for which the EC50 is below 500 nM.

As to `CN(C)CCn1cc(N2CCN(C(=O)C(=O)c3c[nH]c4c(-n5ccnn5)ncc(F)c34)CC2)c(-c2ccccc2)n1` [G-6b], the EC50 is below 500 nM.

Regarding `COc1cnc(-c2cnc(N3CCN(C)CC3)cn2)c2[nH]cc(C(=O)C(=O)N3CCN(c4nnnn4-c4ccccc4)CC3)c12` [G-2a], the EC50 was below 500 nM.

For `COc1cnc(-n2cnc(C)n2)c2[nH]cc(C(=O)C(=O)N3CCC(N4CCN=C4c4ccccc4)CC3)c12` [G-10b], the EC50 was above 500 nM.

With `COc1cnc(-n2cnc(C)n2)c2[nH]cc(C(=O)C(=O)N3CCC(n4ccnc4-c4ccccc4)CC3)c12` [G-11b], the EC50 is above 500 nM.

For the compound `COC(=O)c1ccc(F)c2c(C(=O)C(=O)N3CCN(c4nnnn4-c4ccccc4)CC3)c[nH]c12` [A-25], the EC50 was below 500 nM.

With `COc1cnc(-n2cnc(C)n2)c2[nH]cc(C(=O)C(=O)N3CCN(C4=NCCCN4c4ccccc4)CC3)c12` [A-39], the EC50 was above 500 nM.

Take `O=C(C(=O)N1CCN(c2c[nH]nc2-c2ccccc2)CC1)c1c[nH]c2c(-n3ccnn3)ncc(F)c12` [G-5a]: the EC50 was below 500 nM.

On to `COc1cnc(-n2cnc(C)n2)c2[nH]cc(C(=O)C(=O)N3CCN(c4ncccc4C(=O)NCCCN(C)C)CC3)c12` [D-51], for which the EC50 was above 500 nM.

As to `COc1cnc(-c2cc(CO)[nH]n2)c2[nH]cc(C(=O)C(=O)N3CCN(c4nnnn4-c4ccccn4)CC3)c12` [B-67], the EC50 was below 500 nM.

Take `COc1cnc(-c2cc(C(=O)NCCc3ccncc3)[nH]n2)c2[nH]cc(C(=O)C(=O)N3CCN(c4nnnn4-c4ccccc4)CC3)c12` [B-12, 3-(4-methoxy-3-(2-oxo-2-(4-(1-phenyl-1H-tetrazol-5-yl)piperazin-1-yl)acetyl)-1H-pyrrolo[2,3-c]pyridin-7-yl)-N-(2-(pyridin-4-yl)ethyl)-1H-pyrazole-5-carboxamide.TFA]: the EC50 is below 500 nM.

For `O=C(NCCc1ccncc1)c1cc(-c2ncc(F)c3c(C(=O)C(=O)N4CCN(c5nnnn5-c5ccccc5)CC4)c[nH]c23)n[nH]1` [B-41], the concentration giving a half-maximal response (EC50) was below 500 nM.

As to `COc1cnc(-n2cnc(C)n2)c2[nH]cc(C(=O)C(=O)N3CCN(c4nnnn4-c4ccccc4)C[C@H]3C)c12` [A-30], the EC50 was below 500 nM.

As to `CS(=O)(=O)c1nc(N2CCN(C(=O)C(=O)c3c[nH]c4c(-n5ccnn5)ncc(F)c34)CC2)n(-c2ccccc2)n1` [G-28a], the EC50 was below 500 nM.

On to `COc1cnc(-c2ccc(N3CCNCC3)cc2)c2[nH]cc(C(=O)C(=O)N3CCN(c4nnnn4-c4ccccn4)CC3)c12` [B-82], for which the EC50 was below 500 nM.

Turning to `COc1cnc(-c2cc(C(=O)NCCCN(C)C)[nH]n2)c2[nH]cc(C(=O)C(=O)N3CCN(c4nnnn4-c4ccccc4)CC3)c12` [B-15, N-(3-(dimethylamino)propyl)-3-(4-methoxy-3-(2-oxo-2-(4-(1-phenyl-1H-tetrazol-5-yl)piperazin-1-yl)acetyl)-1H-pyrrolo[2,3-c]pyridin-7-yl)-1H-pyrazole-5-carboxamide.TFA], the EC50 is below 500 nM.

As to `O=C(C(=O)N1CCN(c2nnnn2-c2ccccc2)CC1)c1c[nH]c2c(-c3cc(C(=O)N4CCC(O)CC4)[nH]n3)ncc(F)c12` [F-16], the EC50 was below 500 nM.

For the compound `COc1cnc(-n2cnc(C)n2)c2[nH]cc(C(=O)C(=O)N3CCN(c4nn[nH]c4-c4ccccn4)CC3)c12` [G-24b], the EC50 was below 500 nM.

In the case of `COc1cnc(-c2cscn2)c2[nH]cc(C(=O)C(=O)N3CCN(c4nnnn4-c4ccccn4)CC3)c12` [B-70], the EC50 is below 500 nM.

As to `Cc1nc(N2CCN(C(=O)C(=O)c3c[nH]c4c(-n5ccnn5)ncc(F)c34)CC2)n(-c2ccccc2)n1` [G-32], the EC50 is below 500 nM.

In the case of `CCOC(=O)c1cc(-c2ncc(F)c3c(C(=O)C(=O)N4CCN(c5nnnn5-c5ccccc5)CC4)cn(C)c23)nn1C` [B-60], the EC50 was below 500 nM.

Consider `COc1cnc(-n2cnc(C)n2)c2[nH]cc(C(=O)C(=O)N3CCN(c4ccnn4-c4ccccn4)CC3)c12` [E-15, 1-(4-methoxy-7-(3-methyl-1H-1,2,4-triazol-1-yl)-1H-pyrrolo[2,3-c]pyridinyl-3-yl)-2-(4-(1-(pyridin-2-yl)-1H-pyrazol-5-yl)piperazin-1-yl)ethane-1,2-dione], for which the EC50 was below 500 nM.

Consider `COc1cnc(-n2cnc(C)n2)c2[nH]cc(C(=O)C(=O)N3[C@H](C)CN(c4nnnn4-c4ccccc4)C[C@@H]3C)c12` [A-73], for which the EC50 was below 500 nM.

With `CCOC(=O)CCCCCCC(=O)c1cccnc1N1CCN(C(=O)C(=O)c2c[nH]c3c(-n4ccnn4)ncc(F)c23)CC1` [D-44], the EC50 was above 500 nM.

On to `O=C(O)c1cc(-c2ncc(F)c3c(C(=O)C(=O)N4CCN(c5nnnn5-c5ccccc5)CC4)c[nH]c23)n[nH]1` [B-34], for which the EC50 was below 500 nM.

On to `C[C@@H]1CN(C(=O)C(=O)c2c[nH]c3c(-n4ccnn4)ncc(F)c23)CCN1c1nnnn1-c1ccccc1` [A-45], for which the concentration for a half-maximal effect (EC50) is below 500 nM.

On to `COc1cnc(-c2ccnc(C)c2)c2[nH]cc(C(=O)C(=O)N3CCN(c4nnnn4-c4ccccn4)CC3)c12` [H-12], for which the EC50 was below 500 nM.

For the compound `CO/N=C(\C)c1ncc(F)c2c(C(=O)C(=O)N3CCN(c4nnnn4-c4ccccc4)CC3)c[nH]c12` [B-48], the EC50 is below 500 nM.

For `O=C(C(=O)N1CCC(n2ccnc2-c2ccccc2)CC1)c1c[nH]c2c(-n3ccnn3)ncc(F)c12` [G-11a], the EC50 was below 500 nM.

For the compound `COc1cc[n+]([O-])c2[nH]cc(C(=O)C(=O)N3CCN(c4nnnn4-c4ccccc4)CC3)c12` [B-32], the EC50 was above 500 nM.

With `O=C(C(=O)N1CCN(c2cnnn2-c2ccccn2)CC1)c1c[nH]c2c(-n3ccnn3)ncc(F)c12` [G-22a], the EC50 was below 500 nM.

Regarding `COc1cnc(-n2cnc(C)n2)c2[nH]cc(C(=O)C(=O)N3CCN(c4ncccc4C(=O)Nc4ccccc4)CC3)c12` [D-22], the half-maximal effective concentration (EC50) is above 500 nM.

Turning to `COc1cnc(-c2cc(C(=O)NCCN(C)C)[nH]n2)c2[nH]cc(C(=O)C(=O)N3CCN(c4nnnn4-c4ccccc4)CC3)c12` [B-16, N-(2-(dimethylamino)ethyl)-3-(4-methoxy-3-(2-oxo-2-(4-(1-phenyl-1H-tetrazol-5-yl)piperazin-1-yl)acetyl)-1H-pyrrolo[2,3-c]pyridin-7-yl)-1H-pyrazole-5-carboxamide.TFA], the concentration for a half-maximal effect (EC50) is below 500 nM.

With `COc1cnc(-c2cnccn2)c2[nH]cc(C(=O)C(=O)N3CCN(c4nncn4-c4ccccc4)CC3)c12` [A-57], the EC50 is below 500 nM.

For the compound `O=C(C(=O)N1CCC(N2C(=O)CC2c2ccccc2)CC1)c1c[nH]c2c(-n3ccnn3)ncc(F)c12` (stereo not drawn) [A-21], the EC50 is below 500 nM.

Take `N#Cc1cccc(CC(=O)c2cccnc2N2CCN(C(=O)C(=O)c3c[nH]c4c(-n5ccnn5)ncc(F)c34)CC2)c1` [D-48]: the EC50 is below 500 nM.

Consider `O=C(C(=O)N1CCN(c2nccnc2-c2ccccc2)CC1)c1c[nH]c2c(-n3ccnn3)ncc(F)c12` [A-17], for which the EC50 is below 500 nM.

In the case of `COc1cnc(-c2cncc(F)c2)c2[nH]cc(C(=O)C(=O)N3CCN(c4nnnn4-c4ccccn4)CC3)c12` [H-1], the EC50 is below 500 nM.

For `COc1cnc(-n2cnc(C)n2)c2[nH]cc(C(=O)C(=O)N3CCN(c4nn[nH]c4-c4nccs4)CC3)c12` [G-25b], the EC50 was below 500 nM.

Consider `COc1cnc(-c2ccc(N3CCN(C(=O)OC(C)(C)C)CC3)cc2)c2[nH]cc(C(=O)C(=O)N3CCN(c4nnnn4-c4ccccn4)CC3)c12` [B-81], for which the EC50 was below 500 nM.

Take `CCOC(=O)c1cc(-c2ncc(F)c3c(C(=O)C(=O)N4CCN(c5nnnn5-c5ccccc5)CC4)c[nH]c23)nn1C` [B-43]: the EC50 was below 500 nM.

`O=C(C(=O)N1CCN(N2C(=O)CC2c2ccccc2)CC1)c1c[nH]c2c(-n3ccnn3)ncc(F)c12` (stereo not drawn) [A-23]: the EC50 is above 500 nM.
